Measurements: patent publication US20140134140A1, “MESENCHYMAL STEM CELL COMPOSITIONS FOR THE TREATMENT OF MICROBIAL INFECTIONS” (Case Western Reserve University, priority 2012, published 2014)

What was measured:
CFTR [1] = target: T1, CFTR (Homo sapiens, UniProt P13569); assay: LL-37 secretion by cultured hMSCs with or without CFTR inhibition; type: cell-based
T1 construct: endogenous in cells; host or cells: human mesenchymal stem cells (hMSCs) from bone marrow of healthy volunteers
Protocol: FIG. 11 illustrates that hMSCs and BMM cells secrete LL-37. hMSCs utilized in the animal models were cultured in vitro with and without the addition of 0.5 ug/ml LPS (n=5 preparations) with or without inhibition of CFTR with I-172 (10 ug/ml for 48 hours) and incubated for 24 hours. […] We used the student t-test for these analyses.
(§1) To determine if CF MSCs express CFTR to validate the I-172 studies, we took advantage of an immortal mouse derived MSC clone BMC9, especially since we have a highly reproducible mouse Cftr gene expression assay in our CF animal CORE center. These cells are abundant and have s a MSC phenotype when grown at 37° C. […] The sensitivity and specificity of our Cftr expression assay is 40±2 Ct. If we had used a lower expressing tissue, the % of Cftr levels would be higher. BMC9 cells cultured with I-172 (10 μg/ml, for 48 hours) secreted 37±13% (Mean±SEM, n=3) less LL-37 than BMC9 cells not cultured with I-172 (P≦0.05). […] Our future studies are aimed at studying the differences between and Cftr deficient MSCs and control MSCs.

CFTR [2] = target: T2, CFTR (Mus musculus, UniProt P26361); assay: LL-37 secretion by BMC9 cells with CFTR inhibition; type: cell-based; conditions: 10 μg/ml, 48 hours; Mean±SEM, n=3
T2 construct: BMC9 cells have 0.36±0.14% Cftr expression; endogenous in cells; host or cells: BMC9 immortal mouse MSC clone
T2 sequence (P26361 whole entry): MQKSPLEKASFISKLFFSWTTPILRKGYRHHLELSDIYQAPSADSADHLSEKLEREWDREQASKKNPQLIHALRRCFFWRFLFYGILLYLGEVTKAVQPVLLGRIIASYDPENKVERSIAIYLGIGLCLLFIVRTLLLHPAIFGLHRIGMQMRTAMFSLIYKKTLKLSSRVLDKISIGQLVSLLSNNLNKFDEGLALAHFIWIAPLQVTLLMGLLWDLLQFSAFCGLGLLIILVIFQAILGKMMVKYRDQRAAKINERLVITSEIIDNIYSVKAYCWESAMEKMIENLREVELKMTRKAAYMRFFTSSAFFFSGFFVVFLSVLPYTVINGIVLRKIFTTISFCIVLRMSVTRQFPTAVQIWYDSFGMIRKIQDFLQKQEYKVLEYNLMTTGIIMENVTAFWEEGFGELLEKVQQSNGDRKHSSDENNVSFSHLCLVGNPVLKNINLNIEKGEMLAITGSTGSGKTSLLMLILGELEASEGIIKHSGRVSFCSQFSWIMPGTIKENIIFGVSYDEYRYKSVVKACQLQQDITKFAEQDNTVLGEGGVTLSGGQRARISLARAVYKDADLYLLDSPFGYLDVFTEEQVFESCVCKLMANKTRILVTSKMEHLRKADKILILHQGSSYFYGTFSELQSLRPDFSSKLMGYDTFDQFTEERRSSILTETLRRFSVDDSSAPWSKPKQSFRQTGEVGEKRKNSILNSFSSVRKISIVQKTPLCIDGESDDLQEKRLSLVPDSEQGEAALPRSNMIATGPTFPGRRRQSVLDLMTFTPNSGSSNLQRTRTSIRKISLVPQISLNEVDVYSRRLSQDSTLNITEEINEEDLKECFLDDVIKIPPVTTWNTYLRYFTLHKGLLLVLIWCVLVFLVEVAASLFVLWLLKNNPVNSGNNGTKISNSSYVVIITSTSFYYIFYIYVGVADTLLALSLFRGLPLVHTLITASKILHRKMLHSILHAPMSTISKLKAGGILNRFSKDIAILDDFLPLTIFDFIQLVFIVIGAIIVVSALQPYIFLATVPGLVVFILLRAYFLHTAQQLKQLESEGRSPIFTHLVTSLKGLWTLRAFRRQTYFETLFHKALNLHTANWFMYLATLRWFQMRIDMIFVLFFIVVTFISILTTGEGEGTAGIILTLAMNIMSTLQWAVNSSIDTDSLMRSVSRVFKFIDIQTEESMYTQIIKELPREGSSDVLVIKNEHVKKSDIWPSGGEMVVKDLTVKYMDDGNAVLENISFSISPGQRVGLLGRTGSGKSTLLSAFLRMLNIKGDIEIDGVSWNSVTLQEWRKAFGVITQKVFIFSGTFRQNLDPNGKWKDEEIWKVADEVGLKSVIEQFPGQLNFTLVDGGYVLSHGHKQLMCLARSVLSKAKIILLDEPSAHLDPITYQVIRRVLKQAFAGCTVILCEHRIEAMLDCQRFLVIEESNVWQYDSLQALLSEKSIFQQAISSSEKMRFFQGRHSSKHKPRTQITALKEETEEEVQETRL
Protocol: as §1

T1 sequence (P13569 whole entry): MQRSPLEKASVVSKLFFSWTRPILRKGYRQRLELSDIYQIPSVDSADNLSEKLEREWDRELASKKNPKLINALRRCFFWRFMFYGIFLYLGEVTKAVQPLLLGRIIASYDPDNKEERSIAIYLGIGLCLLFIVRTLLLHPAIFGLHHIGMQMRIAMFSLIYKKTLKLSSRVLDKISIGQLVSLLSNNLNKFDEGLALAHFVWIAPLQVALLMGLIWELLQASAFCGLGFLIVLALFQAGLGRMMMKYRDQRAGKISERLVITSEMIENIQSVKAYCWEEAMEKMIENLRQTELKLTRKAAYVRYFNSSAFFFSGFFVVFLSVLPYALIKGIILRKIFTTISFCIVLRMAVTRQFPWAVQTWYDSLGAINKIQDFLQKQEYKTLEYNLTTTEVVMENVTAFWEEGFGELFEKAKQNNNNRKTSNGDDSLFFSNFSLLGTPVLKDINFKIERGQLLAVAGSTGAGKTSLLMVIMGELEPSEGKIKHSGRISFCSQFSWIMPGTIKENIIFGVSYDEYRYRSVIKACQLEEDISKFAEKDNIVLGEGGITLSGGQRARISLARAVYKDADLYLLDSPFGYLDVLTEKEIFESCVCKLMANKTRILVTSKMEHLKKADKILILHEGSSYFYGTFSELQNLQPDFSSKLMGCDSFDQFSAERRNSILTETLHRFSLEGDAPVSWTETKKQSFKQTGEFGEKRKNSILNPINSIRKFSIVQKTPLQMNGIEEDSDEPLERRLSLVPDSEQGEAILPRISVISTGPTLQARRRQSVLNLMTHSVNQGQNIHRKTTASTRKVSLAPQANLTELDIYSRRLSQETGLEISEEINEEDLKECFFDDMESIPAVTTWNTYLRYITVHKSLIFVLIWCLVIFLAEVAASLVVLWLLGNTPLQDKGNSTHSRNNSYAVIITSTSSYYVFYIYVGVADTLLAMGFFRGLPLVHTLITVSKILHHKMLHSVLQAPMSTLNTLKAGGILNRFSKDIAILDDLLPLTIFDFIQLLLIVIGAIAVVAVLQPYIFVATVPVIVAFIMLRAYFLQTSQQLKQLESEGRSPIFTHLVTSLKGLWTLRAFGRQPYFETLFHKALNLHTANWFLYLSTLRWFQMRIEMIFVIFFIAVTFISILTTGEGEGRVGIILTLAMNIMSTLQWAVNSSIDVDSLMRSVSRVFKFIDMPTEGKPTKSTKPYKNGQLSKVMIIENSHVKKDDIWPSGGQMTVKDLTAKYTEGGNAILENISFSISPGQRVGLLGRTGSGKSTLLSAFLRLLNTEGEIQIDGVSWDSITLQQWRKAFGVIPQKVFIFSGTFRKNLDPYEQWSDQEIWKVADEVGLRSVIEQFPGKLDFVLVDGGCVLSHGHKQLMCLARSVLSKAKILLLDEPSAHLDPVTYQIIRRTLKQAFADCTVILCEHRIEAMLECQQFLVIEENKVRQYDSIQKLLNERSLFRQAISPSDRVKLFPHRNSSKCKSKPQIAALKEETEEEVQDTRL

amount of LL-37 after LPS stimulation (CFTR [1]; 10 ug/ml for 48 hours then LPS, relative to LPS control): even further suppressed
ability of hMSCs to secrete LL-37 (CFTR [1]; 10 ug/ml for 48 hours, relative to un-stimulated control): significantly reduced
less LL-37 secreted than BMC9 cells not cultured with I-172 (CFTR [2]): 37±13%
Structure (SMILES): O=C(O)c1ccc(/C=C2\SC(=S)N(c3cccc(C(F)(F)F)c3)C2=O)cc1 [I-172]
